Blank lines part the entries; values can stand above or below the molecule they belong to.
How the values were obtained:
[1] = Pharmacokinetic study in rat; assay type: in vivo, rats; conditions: for MRT / half-life: PK study (IV 1 mg/kg, oral 2 mg/kg); for MRT: read-out: MRT, mean residence time; for half-life: read-out: T1/2, terminal half-life (converted)
Description: (§1) Intravenous (IV) PK studies were conducted at a dose of 1 mg/kg in hGCGR mice and rats and 0.5 mg/kg in dogs and rhesus monkeys. The IV doses were formulated in ethanol:PEG400:water (20:30:50 v/v/v). Oral PK studies were conducted at a dose of 2 mg/kg in mice, rats, dogs and monkeys. The oral doses were formulated in ethanol:PEG400:water (20:30:50 v/v/v) for dosing in mice and rats and in 0.5% methylcellulose in dogs and monkeys.
(§2) Plasma was prepared for analysis by protein precipitation with acetonitrile. Plasma concentrations were determined by LC-MS/MS using ABI Sciex API 4000 or 5000 mass spectrometers operated in atmospheric pressure chemical ionization mode with multiple-reaction monitoring.
(§3) Pharmacokinetic parameters were calculated with a non-compartmental model using Watson software (Watson Software, Thermo Fisher, Waltham, Mass., USA). The area under the plasma concentration versus time curve from 0 to 24 h (AUC0-24) was determined using linear trapezoidal interpolation in the ascending slope and logarithmic trapezoidal interpolation in the descending slope. The portion of the AUC from the last measurable concentration to infinity ([…]) was estimated by Ct/kel, where Ct represents the last measurable concentration and kel is the elimination rate constant. The latter was determined from the concentration versus time curve at the terminal phase by linear regression of the semilogarithmic plot. Oral bioavailability (F) was estimated as the AUC0-inf ratio following oral and i.v. administration normalized for differences in dose. The apparent half-life (t1/2) was estimated from the slope of the terminal phase of the log plasma concentration-time curve. MRT, the average time a compound molecule resides in the body, is calculated with the following equation: MRT=AUMC/AUC. In this equation AUMC is the area under the first moment curve and is determined as the area under the curve of a plot of the product of concentration and time versus time. AUC is equal to AUC0-inf.

human glucagon receptor [2] = target: T1, human glucagon receptor (Homo sapiens, UniProt P47871); test: Glucagon receptor binding assay (125I-glucagon, SPA, CHO cell membranes); conditions: CHO cell membranes expressing cloned human glucagon receptor
T1 construct: expressed in transfected cells; host or cells: CHO cells
T1 sequence (P47871 26-477): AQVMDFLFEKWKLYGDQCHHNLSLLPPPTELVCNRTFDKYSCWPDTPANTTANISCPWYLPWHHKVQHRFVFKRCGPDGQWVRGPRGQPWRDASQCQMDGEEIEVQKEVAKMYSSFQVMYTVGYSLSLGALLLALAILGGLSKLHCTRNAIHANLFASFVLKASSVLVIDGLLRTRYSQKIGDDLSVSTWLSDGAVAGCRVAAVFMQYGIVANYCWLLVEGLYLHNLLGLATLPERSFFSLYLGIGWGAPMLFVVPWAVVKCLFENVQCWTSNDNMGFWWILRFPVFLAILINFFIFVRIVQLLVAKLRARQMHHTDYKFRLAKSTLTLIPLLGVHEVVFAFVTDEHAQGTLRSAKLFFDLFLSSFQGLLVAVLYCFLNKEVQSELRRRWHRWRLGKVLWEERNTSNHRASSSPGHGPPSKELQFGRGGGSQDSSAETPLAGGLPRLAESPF
Description: A stable CHO (Chinese hamster ovary) cell line expressing cloned human glucagon receptor was maintained as described (Chicchi et al. J Biol Chem 272, 7765-9(1997); Cascieri et al. J_Biol Chem 274, 8694-7(1999)). […] After 4-12 hours incubation at room temperature, the radioactivity bound to the cell membranes was determined in a radioactive emission detection counter (Wallac-Microbeta). Data was analyzed using the software program Prism from GraphPad. IC50 values were calculated using non-linear regression analysis assuming single site competition.

[3] = Pharmacokinetic study in rhesus monkey; assay type: in vivo, rhesus monkeys; conditions: for MRT / half-life: PK study (IV 0.5 mg/kg, oral 2 mg/kg); for MRT: read-out: MRT, mean residence time; for half-life: read-out: T1/2, terminal half-life (converted)
Description: as §1, §2, §3

[4] = Pharmacokinetic study in dog; assay type: in vivo, dogs; conditions: for MRT / half-life: PK study (IV 0.5 mg/kg, oral 2 mg/kg); for MRT: read-out: MRT, mean residence time; for half-life: read-out: T1/2, terminal half-life (converted)
Description: as §1, §2, §3

[5] = Pharmacokinetic study in mouse; assay type: in vivo, hGCGR mice; conditions: for MRT / half-life: PK study (IV 1 mg/kg, oral 2 mg/kg); for MRT: read-out: MRT, mean residence time; for half-life: read-out: T1/2, terminal half-life (converted)
Description: as §1, §2, §3

human glucagon receptor [6] = target: T1, human glucagon receptor; test: Inhibition of glucagon-stimulated intracellular cAMP formation; assay type: cell-based; conditions: CHO cells expressing human glucagon receptor; glucagon 250 pM
Description: Exponentially growing CHO cells expressing human glucagon receptor were harvested with the aid of enzyme-free dissociation media (Specialty Media), pelleted at low speed, and re-suspended in the Cell Stimulation Buffer included in the Flash Plate cAMP kit (New England Nuclear, SMP0004A). The adenylate cyclase assay was setup as per manufacturer instructions. Briefly, compounds were diluted from stocks in DMSO and added to cells at a final DMSO concentration of 5%. Cells prepared as above were preincubated in flash plates coated with anti-cAMP antibodies (NEN) in presence of compounds or DMSO controls for 30 minutes, and then stimulated with glucagon (250 pM) for an additional 30 minutes. The cell stimulation was stopped by addition of equal amount of a detection buffer containing lysis buffer as well as ^125I-labeled cAMP tracer (NEN). After 3 hours of incubation at room temperature the bound radioactivity was determined in a liquid scintillation counter (TopCount-Packard Instruments). Basal activity (100% inhibition) was determined using the DMSO control while 0% inhibition was defined at the amount of pmol cAMP produced by 250 pM glucagon.

MRT compared to MK-3577 [1]: over 3 fold
T1/2 longer compared to MK-3577 [1]: ~1.5 fold
Oral AUCnorm(0-∞) ([1]; oral 2 mg/kg, dose-normalized): 1.2 µM·kg·h/mg
clearance ([1]; plasma, IV 1 mg/kg, read-out: Clp, plasma clearance): 18 mL/min/kg
Vd ([1]; plasma, IV 1 mg/kg, read-out: Vdss, volume of distribution at steady state): 3.2 L/kg
MRT ([1]; plasma): 2.9 h
half-life ([1]; plasma): 2.2 h
bioavailability ([1]; plasma, oral 2 mg/kg vs IV 1 mg/kg, read-out: F, oral bioavailability): 76%
IC50 (human glucagon receptor [2]): 0.24 nM
MRT longer compared to MK-3577 [3]: ~3.4 fold
T1/2 longer compared to MK-3577 [3]: ~2.2 fold
Oral AUCnorm(0-∞) ([3]; oral 2 mg/kg, dose-normalized): 6 µM·kg·h/mg
clearance ([3]; rhesus monkey, plasma, IV 0.5 mg/kg, read-out: Clp, plasma clearance): 3 mL/min/kg
Vd ([3]; rhesus monkey, plasma, IV 0.5 mg/kg, read-out: Vdss, volume of distribution at steady state): 2 L/kg
MRT ([3]; rhesus monkey, plasma): 11 h
half-life ([3]; rhesus monkey, plasma): 11 h
bioavailability ([3]; rhesus monkey, plasma, oral 2 mg/kg vs IV 0.5 mg/kg, read-out: F, oral bioavailability): 47%
MRT longer compared to MK-3577 [4]: ca. 3.8 fold
T1/2 longer compared to MK-3577 [4]: ca. 3.3 fold
Oral AUCnorm(0-∞) ([4]; oral 2 mg/kg, dose-normalized): 16 µM·kg·h/mg
clearance ([4]; plasma, IV 0.5 mg/kg, read-out: Clp, plasma clearance): 0.63 mL/min/kg
Vd ([4]; plasma, IV 0.5 mg/kg, read-out: Vdss, volume of distribution at steady state): 0.72 L/kg
MRT ([4]; plasma): 20 h
half-life ([4]; plasma): 16 h
bioavailability ([4]; plasma, oral 2 mg/kg vs IV 0.5 mg/kg, read-out: F, oral bioavailability): 30%
MRT compared to MK-3577 [5]: ~4.5 fold
T1/2 longer compared to MK-3577 [5]: ~2.9 fold
clearance ([5]; hGCGR, plasma, IV 1 mg/kg, read-out: Clp, plasma clearance): 3.5 mL/min/kg
Vd ([5]; hGCGR, plasma, IV 1 mg/kg, read-out: Vdss, volume of distribution at steady state): 2.2 L/kg
MRT ([5]; hGCGR, plasma): 10 h
half-life ([5]; hGCGR, plasma): 8.2 h
bioavailability ([5]; hGCGR, plasma, oral 2 mg/kg vs IV 1 mg/kg, read-out: F, oral bioavailability): 87%
Oral AUCnorm(0-∞) ([5]; oral 2 mg/kg, dose-normalized): 8.0 µM·kg·h/mg
IC50 (human glucagon receptor [6]): 19.2 nM
Structure (SMILES): CCC[C@H](c1ccc(C(=O)NCCC(=O)O)cc1)[C@H](c1ccc(OC(F)(F)F)cc1)c1c[nH]c2c(F)cc(Cl)cc12 [Example 1, 3-(4-((1R,2S)-1-(5-Chloro-7-Fluoro-1H-Indol-3-yl)-1-(4-(Trifluoromethoxy)Phenyl)Pentan-2-yl)Benzamido)Propanoic Acid]

MRT ([1]; plasma): 0.9 h
half-life ([1]; plasma): 1.4 h
MRT ([3]; rhesus monkey, plasma): 3.2 h
half-life ([3]; rhesus monkey, plasma): 5.1 h
MRT ([4]; plasma): 5.2 h
half-life ([4]; plasma): 4.9 h
MRT ([5]; hGCGR, plasma): 2.2 h
half-life ([5]; hGCGR, plasma): 2.8 h
Structure (SMILES): CCC[C@H](c1ccc(C(=O)NCCC(=O)O)cc1)[C@H](c1ccc(Cl)cc1)c1c[nH]c2c(F)cc(C)cc12 [MK3577, reference compound]
